# In patent publication US20240229098A1, “BIOLUMINOGENIC ASSAY FOR DRUG-RESISTANCE BACTERIA DETECTION” (priority 2021, published 2024):
# What was measured:
# firefly luciferase = molecular target: T1, firefly luciferase (Photinus pyralis, UniProt P08659); test: Background bioluminescence and oxidation of pro-luciferin probes on repeated addition of firefly luciferase; format: biochemical
# T1 construct: purchased Promega E1701
# Procedure: The initial bioluminescent background signal may come from residual D-luciferin present in the sample. High-performance liquid chromatography (HPLC) analysis could not detect any D-luciferin at a concentration below 0.1 μM. However, addition of firefly luciferase can efficiently detect and consume the residual free D-luciferin.
# To further confirm the quenching effect of dabcyl in D-Bluco, another control, Am-Bluco, was prepared that is structurally similar to D-Bluco but with dabcyl replaced by a structure lacking the broad absorption between 400 and 530 nm (FIG. 1).
# [1] = Stability of probe incubated with E. coli or PBS; details: incubated with Escherichia coli or PBS
# E. coli/TEM lysate = test: Bioluminescence with bacterial lysate compared to intact bacteria, E. coli/TEM; format: cell-based, Escherichia coli; details: CHAPS lysis
# [2] = system: KPC-3, BlaC, TEM-1, IMP-1, AmpC, OXA-48; test: Bioluminescence with panel of recombinant β-lactamases of clinical relevance; format: biochemical
# Procedure: FIGS. 9A and 9B illustrates bioluminescent studies of D-Bluco and O-Bluco treating with various β-lactamases. 10 μM of Bluco, D-Bluco and O-Bluco incubated with 20 nM TEM-1 for 15 min in PBS at r.t. The bioluminescent signals for each compound was evaluated with or without the addition of TEM-1 by a luminator. […] The relative bioluminescent was calculated by removing background signal in PBS.
# Having confirmed the quenching ability of dabcyl to lower D-Bluco bioluminescent background emission, the activity of D-Bluco towards a variety of β-lactamases that are of clinical relevance in addition to TEM-1, including KPC-3, BlaC (Class A), AmpC (Class C), and OXA-48 (Class D) was then assessed. These enzymes were recombinantly expressed and purified. The bioluminescent signal was measured with an IVIS optical imaging system after treating D-Bluco with each enzyme for 2 hours at room temperature.
# D-Bluco and O-Bluco were evaluated with various β-lactamase that of clinical relevance (FIG. 9B and 9C), including KPC-3, BlaC, TEM-1 (Class A), IMP-1 (Class B), AmpC (Class C), and OXA-48 (Class D). These enzymes were recombinantly expressed, purified as previously described^25. The bioluminescent signal was measured after incubating O-Bluco or D-Bluco with each enzyme at different concentrations for 2 hr at r.t. […] This compares favorably to previously reported fluorescent cephalosporin probe with a 1000-fold sensitivity improvement.^26
# The caged luciferin probes were incubated with different concentrations of TEM-1 β-lactamase or IMP-1 carbapenemase (0.001-0.1 fmol) in PBS (pH=7.4) for 2 hr at 25° C. Then a mixture of luciferase (200 nM), ATP (2 mM), and MgCl2 (4 mM) was added, and bioluminescent signals were detected with a SpectraMax microplate reader or a luminator.
# [3] = system: clinically bacteria isolates in urine samples; test: RAPID BLI assay, summary for clinical bacteria isolates in urine samples; format: cell-based; details: in 30 mins
# Excerpt: The source of the bioluminescence background emission in bioluminogenic pro-luciferin probes was investigated. In addition to trace amounts of free D-luciferin in the sample, pro-luciferin probes can be oxidized by luciferases due to the promiscuity of the enzyme […]. […] By combining BRET quenching and chemical caging, an ultrasensitive bioluminescent probe D-Bluco was developed that could detect as low as 10-18 moles of β-lactamase activity.
# BlaC = molecular target: T2, BlaC (Mycobacterium tuberculosis, UniProt P9WKD3); test: Limit of detection of recombinant β-lactamase by bioluminescence (BlaC); format: biochemical; details: 2 hours, room temperature; 3 SD of negative control
# T2 construct: made in house
# S. marcescens (SME) = test: Clinical isolate spiked in synthetic urine, filtered and centrifuged, S. marcescens (SME); format: cell-based; details: 10 μM D-Bluco, an hour at 37° C., PBS pH 7.4
# Procedure: FIGS. 11A-11C illustrate detection of clinical isolates spiked in urine with D-Bluco a) Workflow for clinical sample detection b) Bioluminescent response for different concentrations of S. marcescens (SME) or c) E. coli/OXA-48 spiked into synthetic urine samples following the incubation with D-Bluco (10 μM) at 37° C. for an hour. Bioluminescent signal was measured and compared to that of E. coli (10^6 c.f.u/mL).
# Urinary tract infection (UTI) is a severe public health problem because of the high recurrence rates and increasing antimicrobial resistance. It is among the major cause of patient morbidity and health care expenditures for both men and women of all age groups, accounting for 1 million cases of nosocomial in USA annually and an estimate cost of 1.6 billion. As a proof-of-concept, we spiked different concentrations of clinic isolates into synthetic urine samples. E. coli expressing OXA-48 and S. marcescens (SME) were chosen as examples. S. marcescens, being an opportunistic pathogen, accounts for an average of 6.5% of all Gram negative infection in intensive Care Units. The spiked urine samples were filtered and centrifuged to collect the bacteria (FIG. 11A). The collected bacteria were then diluted in PBS (pH=7.4) and incubated with 10 μM D-Bluco for an hour at 37° C.
# T1 sequence (P08659 whole entry): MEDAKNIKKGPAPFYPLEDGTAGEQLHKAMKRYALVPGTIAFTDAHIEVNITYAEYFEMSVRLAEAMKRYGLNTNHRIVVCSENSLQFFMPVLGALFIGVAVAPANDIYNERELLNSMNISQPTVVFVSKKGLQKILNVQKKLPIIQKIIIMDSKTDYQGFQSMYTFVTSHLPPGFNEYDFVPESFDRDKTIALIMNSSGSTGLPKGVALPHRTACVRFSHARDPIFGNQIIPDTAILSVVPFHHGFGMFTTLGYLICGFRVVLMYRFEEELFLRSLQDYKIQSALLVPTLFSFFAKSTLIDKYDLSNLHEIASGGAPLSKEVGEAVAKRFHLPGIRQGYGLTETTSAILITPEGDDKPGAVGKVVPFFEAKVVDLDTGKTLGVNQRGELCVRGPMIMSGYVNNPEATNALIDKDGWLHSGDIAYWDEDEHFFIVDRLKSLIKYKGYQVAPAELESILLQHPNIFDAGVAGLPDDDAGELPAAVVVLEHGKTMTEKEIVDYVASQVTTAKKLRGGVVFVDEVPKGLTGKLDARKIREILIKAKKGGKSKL
# T2 sequence (P9WKD3 35-307): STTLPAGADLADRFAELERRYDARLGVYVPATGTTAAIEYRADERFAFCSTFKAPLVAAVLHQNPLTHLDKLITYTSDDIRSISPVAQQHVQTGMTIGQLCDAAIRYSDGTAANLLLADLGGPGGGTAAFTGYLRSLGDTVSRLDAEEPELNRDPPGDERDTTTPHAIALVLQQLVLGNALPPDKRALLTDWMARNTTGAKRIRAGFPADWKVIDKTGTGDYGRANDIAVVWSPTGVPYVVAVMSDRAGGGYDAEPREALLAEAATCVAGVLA
smiles,measurement,setting,value
"CN(C)c1ccc(/N=N/c2ccc(C(=O)NCCCCCC(=O)NC3C(=O)N4C(C(=O)O)=C(COc5ccc6nc(C7=N[C@@H](C(=O)O)CS7)sc6c5)C[S+]([O-])C34)cc2)cc1 (stereo partly drawn) [D-Bluco, 3-(((2-((S)-4-carboxy-4,5-dihydrothiazol-2-yl)benzo[d]thiazol-6-yl)oxy)methyl)-7-(6-(4-((E)-(4-(dimethylamino)phenyl)diazenyl)benzamido)hexanamido)-8-oxo-5-thia-1-azabicyclo[4.2.0]oct-2-ene-2-carboxylic acid 5-oxide]",oxidation of probe incubated with firefly luciferase (mass spectrometry),firefly luciferase; incubated with firefly luciferase,oxidized
same,bioluminescence emission on additional batches of firefly luciferase,"firefly luciferase; repeated firefly luciferase addition, no β-lactamase",no further bioluminescence emission was detected
same,stability when incubated with E. coli or PBS,[1],highly stable
same,signal enhancement with lysate compared to intact bacteria,E. coli/TEM lysate,52 fold
same,lowest detectable β-lactamase activity,[2],10-18 moles
same,detection limits for the panel of enzymes,"[2]; KPC-3, BlaC, TEM-1, IMP-1, AmpC, OXA-48, 2 hr at r.t.",within the femtomole range
same,"bioluminescence triggered by β-lactamases TEM-1, KPC-3, BlaC, AmpC, OXA-48","[2]; each enzyme 2 hours at room temperature, IVIS imaging",significant bioluminescence
same,sensitivity of RAPID BLI assay for clinical isolates in urine samples,[3],10^2-10^3 cfu/mL
same,limit of detection (LOD) of BlaC (all other β-lactamases),BlaC,0.001 femtomole
same,concentration from which significant bioluminescence enhancement is seen,S. marcescens (SME),10^4 c.f.u/mL
